Assay results taken from US10633350B2, “Diphenyl derivatives and uses thereof” (NOVARTIS AG, priority 2017, dated 2020).
Read-outs that look alike come from different tables or passages of the source.

Tests used:
FoxO3a = FoxO3a inhibition assay (GFP-FoxO3a nuclear to cytoplasmic translocation) in U2OS GFP-FoxO3a H212R reporter cells; assay type: cell-based; settings: serum starved overnight, 30 minutes compound treatment, ratio of nuclear to cytosolic GFP intensity, AC50 = concentration that results in 50% activation or inhibition, read-out: FoxO AC50
Procedure: (§1) Phosphorylation of Akt on S473 and FoxO3a nuclear to cytoplasmic translocation were used as readouts of PI3K/Akt/mTOR pathway activation downstream of growth factor signaling.
(§2) Reporter cell line. U2OS GFP-FoxO3a H212R reporter cell line was established by transducing U2OS cells with the retroviral plasmid pLEGFP-C1 containing FoxO3a H212R transgene and selecting for G418 resistant clones.
(§3) Reporter assay. U2OS GFP-FoxO3a H212R cells were plated in 384-well plates at 4000 cells per well in 30 microliters of McCoy's 5A medium containing 10% FBS. On day 1 the cells were washed with serum free medium and serum starved overnight. On day 2 the cells were treated with different doses of the compounds for 30 minutes, fixed with 4% Paraformaldehyde for 1 hour and stained with Phospho-AKT (Ser473) antibody (Cell Signaling Technology, catalog #4060) overnight at 4° C. After nuclei staining with Hoechst 33342 (Life Technologies, catalog # H3570) the plates were imaged with InCell 2000 (GE Healthcare Bio-Sciences). FoxO3a inhibition activity is calculated as the ratio of nuclear to cytosolic GFP intensity in percent. Akt activation is measured as the total cellular intensity of Phospho-Akt antibody staining in percent. DMSO control is set as 0% activity.

Akt = Akt activation assay (Phospho-AKT (Ser473) antibody staining) in U2OS GFP-FoxO3a H212R reporter cells; assay type: cell-based; settings: Homo sapiens, 0.5 h, serum starved overnight, 30 minutes compound treatment, total cellular intensity of Phospho-Akt (Ser473) antibody staining, AC50 = concentration that results in 50% activation or inhibition
Procedure: as §1, §2, §3

Cc1nc(C(N)=O)nn1-c1ccc(Cc2ccc(-c3ccc(OC4CCN(C)CC4)cc3)cc2)cc1 [Example 47, 5-methyl-1-(4-((4′-((1-methylpiperidin-4-yl)oxy)-[1,1′-biphenyl]-4-yl)methyl)phenyl)-1H-1,2,4-triazole-3-carboxamide] showed an AC50 (FoxO3a; Homo sapiens, 0.5 h) of 93 nM and an AC50 (Akt) of 99 nM.
Cc1cc(C(N)=O)nn1-c1ccc(Cc2ccc(-c3ccc(CN4CCCC4)cc3)cc2)cc1 [Example 3-1, 5-methyl-1-(4-((4′-(pyrrolidin-1-ylmethyl)-[1,1′-biphenyl]-4-yl)methyl)phenyl)-1H-pyrazole-3-carboxamide] showed an AC50 (FoxO3a; Homo sapiens, 0.5 h) of 36 nM and an AC50 (Akt) of 135 nM.
Cc1cc(C(N)=O)nn1-c1ccc(Cc2ccc(-c3ccc4c(c3)CNC4)cc2)cc1 [Example 3-4, 1-(4-(4-(isoindolin-5-yl)benzyl)phenyl)-5-methyl-1H-pyrazole-3-carboxamide] gave an AC50 (FoxO3a; Homo sapiens, 0.5 h) of 75 nM and an AC50 (Akt) of 268 nM.
Cc1nc(C(N)=O)nn1-c1ccc(Cc2ccc(-c3ccc(CN4CCC(C)(C)C4)cc3)cc2)cc1 [Example 38-7] gave an AC50 (FoxO3a; Homo sapiens, 0.5 h) of 15 nM and an AC50 (Akt) of 31 nM.
In the case of Cc1cc(C(N)=O)nn1-c1ccc(Cc2ccc(-c3ccc(CN4CCNCC4)cn3)cc2)cc1 [Example 31-3, 5-methyl-1-(4-(4-(5-(piperazin-1-ylmethyl)pyridin-2-yl)benzyl)phenyl)-1H-pyrazole-3-carboxamide], the AC50 (FoxO3a; Homo sapiens, 0.5 h) is reported as 158 nM and the AC50 (Akt) is reported as 190 nM.
With Cc1cc(C(N)=O)nn1-c1ccc(C(C)(C)c2ccc(-c3ccc(C4(CN)COC4)cc3)cc2)cc1 [Example 11, 1-(4-(2-(4′-(3-(aminomethyl)oxetan-3-yl)-[1,1′-biphenyl]-4-yl)propan-2-yl)phenyl)-5-methyl-1H-pyrazole-3-carboxamide] the AC50 (FoxO3a; Homo sapiens, 0.5 h) was 607 nM and the AC50 (Akt) was 1190 nM.
Cc1cc(C(N)=O)nn1-c1ccc(C(C)(C)c2ccc(-c3ccc4[nH]ncc4c3)cc2)cc1 [Example 6-4, 1-(4-(2-(4-(1H-indazol-5-yl)phenyl)propan-2-yl)phenyl)-5-methyl-1H-pyrazole-3-carboxamide] was tested, and the AC50 (FoxO3a; Homo sapiens, 0.5 h) was 517 nM and the AC50 (Akt) was 1040 nM.
Work on Cc1nc(C(N)=O)nn1-c1ccc(C(C)(C)c2ccc(-c3ccc(N4CCOCC4)nc3)cc2)cc1 [Example 13-15] yielded an AC50 (FoxO3a; Homo sapiens, 0.5 h) of 114 nM and an AC50 (Akt) of 493 nM.
Work on Cc1nc(C(N)=O)nn1-c1ccc(C(C)(C)c2ccc(-c3ccc(S(=O)(=O)N(C)C)cc3)cc2)cc1 [Example 13-2] yielded an AC50 (FoxO3a; Homo sapiens, 0.5 h) of 112 nM and an AC50 (Akt) of 252 nM.
In the case of Cc1nc(C(N)=O)nn1-c1ccc(Cc2ccc(-c3ccc(CN4CC[C@H](O)C4)cc3)cc2)cc1 [Example 39-5], the AC50 (FoxO3a; Homo sapiens, 0.5 h) is reported as 8 nM and the AC50 (Akt) is reported as 22 nM.
Cc1cc(C(N)=O)nn1-c1ccc(Cc2ccc(-c3ccc(CN4CCCC4)nc3)cc2)cc1 [Example 5-5, 5-methyl-1-(4-(4-(6-(pyrrolidin-1-ylmethyl)pyridin-3-yl)benzyl)phenyl)-1H-pyrazole-3-carboxamide] showed an AC50 (FoxO3a; Homo sapiens, 0.5 h) of 152 nM and an AC50 (Akt) of 426 nM.
Compound Cc1nc(C(N)=O)nn1-c1ccc(Cc2ccc(-c3ccc(CN4CCCC4)cc3)cc2)cc1 [Example 15-4] has an AC50 (FoxO3a; Homo sapiens, 0.5 h) of 33 nM and an AC50 (Akt) of 99 nM.
Compound Cc1nc(C(N)=O)nn1-c1ccc(Cc2ccc(-c3cccnc3)cc2)cc1 [Example 15-2] has an AC50 (FoxO3a; Homo sapiens, 0.5 h) of 277 nM and an AC50 (Akt) of 888 nM.
Cc1nc(C(N)=O)nn1-c1ccc(Cc2ccc(-c3ccc(CN4CCC(F)(F)C4)cc3)cc2)cc1 [Example 38-2] was tested, and the AC50 (FoxO3a; Homo sapiens, 0.5 h) was 48 nM and the AC50 (Akt) was 230 nM.
Compound Cc1nc(C(N)=O)nn1-c1ccc(Cc2ccc(-c3ccc(CN4CC[C@@H](O)C4)cc3)cc2)cc1 [Example 39-4] has an AC50 (FoxO3a; Homo sapiens, 0.5 h) of 26 nM and an AC50 (Akt) of 92 nM.
With Cc1cc(C(N)=O)nn1-c1ccc(Cc2ccc(-c3ccc(C(C)(C)O)cn3)cc2)cc1 [Example 19, 1-(4-(4-(5-(2-hydroxypropan-2-yl)pyridin-2-yl)benzyl)phenyl)-5-methyl-1H-pyrazole-3-carboxamide] the AC50 (FoxO3a; Homo sapiens, 0.5 h) was 71 nM and the AC50 (Akt) was 209 nM.
Cc1nc(C(N)=O)nn1-c1ccc(C(C)(C)c2ccc(-c3ccc(CN4CCCC4)cc3)cc2)cc1 [Example 13-1, 5-methyl-1-(4-(2-(4′-(pyrrolidin-1-ylmethyl)-[1,1′-biphenyl]-4-yl)propan-2-yl)phenyl)-1H-1,2,4-triazole-3-carboxamide] was tested, and the AC50 (FoxO3a; Homo sapiens, 0.5 h) was 128 nM and the AC50 (Akt) was 375 nM.
For Cc1nc(C(N)=O)nn1-c1ccc(C(C)(C)c2ccc(-c3cnn(C)c3)cc2)cc1 [Example 13-8], the AC50 (FoxO3a; Homo sapiens, 0.5 h) was 664 nM and the AC50 (Akt) was 1750 nM.
Cc1cc(C(N)=O)nn1-c1ccc(Cc2ccc(-c3ccc(CN4CCC[C@H]4CO)cc3)cc2)cc1 [Example 16-1, (S)-1-(4-((4′-((2-(hydroxymethyl)pyrrolidin-1-yl)methyl)-[1,1′-biphenyl]-4-yl)methyl)phenyl)-5-methyl-1H-pyrazole-3-carboxamide] showed an AC50 (FoxO3a; Homo sapiens, 0.5 h) of 33 nM and an AC50 (Akt) of 90 nM.
Cc1nc(C(N)=O)nn1-c1ccc(Cc2ccc(-c3ccc(CN4CCC(CN(C)C)CC4)cc3)cc2)cc1 [Example 39-1, 1-(4-((4′-((4-((dimethylamino)methyl)piperidin-1-yl)methyl)-[1,1′-biphenyl]-4-yl)methyl)phenyl)-5-methyl-1H-1,2,4-triazole-3-carboxamide] gave an AC50 (FoxO3a; Homo sapiens, 0.5 h) of 195 nM and an AC50 (Akt) of 615 nM.
Work on Cc1nc(C(N)=O)nn1-c1ccc(C(C)(C)c2ccc(Cl)cc2)cc1 [Example 1, 1-(4-(2-(4-chlorophenyl)propan-2-yl)phenyl)-5-methyl-1H-1,2,4-triazole-3-carboxamide] yielded an AC50 (FoxO3a; Homo sapiens, 0.5 h) of 576 nM and an AC50 (Akt) of 1550 nM.
With Cc1cc(C(N)=O)nn1-c1ccc(Cc2ccc(-c3ccc4c(c3)CCN(C)C4)cc2)cc1 [Example 3-3, 5-methyl-1-(4-(4-(2-methyl-1,2,3,4-tetrahydroisoquinolin-6-yl)benzyl)phenyl)-1H-pyrazole-3-carboxamide] the AC50 (FoxO3a; Homo sapiens, 0.5 h) was 40 nM and the AC50 (Akt) was 109 nM.
Cc1cc(C(N)=O)nn1-c1ccc(Cc2ccc(-c3ccc(CN4CCCCC4)cc3)cc2)cc1 [Example 16-6] showed an AC50 (FoxO3a; Homo sapiens, 0.5 h) of 103 nM and an AC50 (Akt) of 248 nM.
Compound Cc1nnc(-c2cccc(-c3ccc(C(C)(C)c4ccc(-n5nc(C(N)=O)nc5C)cc4)cc3)c2)o1 [Example 13-13] has an AC50 (FoxO3a; Homo sapiens, 0.5 h) of 179 nM and an AC50 (Akt) of 506 nM.
With Cc1cc(C(N)=O)nn1-c1ccc(Cc2ccc(-c3ccc(CN4CCNCC4)nc3)cc2)cc1 [Example 31-1, 5-methyl-1-(4-(4-(6-(piperazin-1-ylmethyl)pyridin-3-yl)benzyl)phenyl)-1H-pyrazole-3-carboxamide] the AC50 (FoxO3a; Homo sapiens, 0.5 h) was 77 nM and the AC50 (Akt) was 354 nM.
For Cc1cc(C(N)=O)nn1-c1ccc(Cc2ccc(-c3ccccc3)cc2)cc1 [Example 3-8, 1-(4-([1,1′-biphenyl]-4-ylmethyl)phenyl)-5-methyl-1H-pyrazole-3-carboxamide], the AC50 (FoxO3a; Homo sapiens, 0.5 h) was 383 nM and the AC50 (Akt) was 960 nM.
Cc1cc(C(N)=O)nn1-c1ccc(Cc2ccc(-c3ccnc(C(C)(C)O)c3)cc2)cc1 [Example 23, 1-(4-(4-(2-(2-hydroxypropan-2-yl)pyridin-4-yl)benzyl)phenyl)-5-methyl-1H-pyrazole-3-carboxamide] showed an AC50 (FoxO3a; Homo sapiens, 0.5 h) of 121 nM and an AC50 (Akt) of 639 nM.
Work on Cc1nc(C(N)=O)nn1-c1ccc(Cc2ccc(-c3ccc(CC4C[C@@H]5CN(C)C[C@@H]5C4)cc3)cc2)cc1 (stereo partly drawn) [Example 41, 5-methyl-1-(4-((4′-(((3aR,6aS)-2-methyloctahydrocyclopenta[c]pyrrol-5-yl)methyl)-[1,1′-biphenyl]-4-yl)methyl)phenyl)-1H-1,2,4-triazole-3-carboxamide] yielded an AC50 (FoxO3a; Homo sapiens, 0.5 h) of 114 nM and an AC50 (Akt) of 91 nM.
For Cc1nnc(-c2ccc(-c3ccc(C(C)(C)c4ccc(-n5nc(C(N)=O)cc5C)cc4)cc3)cc2)o1 [Example 6-6, 5-methyl-1-(4-(2-(4′-(5-methyl-1,3,4-oxadiazol-2-yl)-[1,1′-biphenyl]-4-yl)propan-2-yl)phenyl)-1H-pyrazole-3-carboxamide], the AC50 (FoxO3a; Homo sapiens, 0.5 h) was 283 nM and the AC50 (Akt) was 842 nM.
With CCN(CC)Cc1ccc(-c2ccc(Cc3ccc(-n4nc(C(N)=O)cc4C)cc3)cc2)cc1 [Example 3-2, 1-(4-((4′-((diethylamino)methyl)-[1,1′-biphenyl]-4-yl)methyl)phenyl)-5-methyl-1H-pyrazole-3-carboxamide] the AC50 (FoxO3a; Homo sapiens, 0.5 h) was 236 nM and the AC50 (Akt) was 341 nM.
Cc1nc(C(N)=O)nn1-c1ccc(Cc2ccc(-c3ccc(CN4CCN(C)[C@@H](C)C4)nc3)cc2)cc1 [Example 37, (S)-1-(4-(4-(6-((3,4-dimethylpiperazin-1-yl)methyl)pyridin-3-yl)benzyl)phenyl)-5-methyl-1H-1,2,4-triazole-3-carboxamide] was tested, and the AC50 (FoxO3a; Homo sapiens, 0.5 h) was 276 nM and the AC50 (Akt) was 498 nM.
With Cc1cc(C(N)=O)nn1-c1ccc(Cc2ccc(C3CCN(C)C3)cc2)cc1 (single isomer, unassigned) [Example 5-1, 5-methyl-1-(4-(4-(1-methylpyrrolidin-3-yl)benzyl)phenyl)-1H-pyrazole-3-carboxamide] the AC50 (FoxO3a) was 295 nM and the AC50 (Akt) was 1320 nM.
Cc1cc(C(N)=O)nn1-c1ccc(Cc2ccc(-c3ccc(C(C)(C)O)nn3)cc2)cc1 [Example 58, 1-(4-(4-(6-(2-hydroxypropan-2-yl)pyridazin-3-yl)benzyl)phenyl)-5-methyl-1H-pyrazole-3-carboxamide] showed an AC50 (FoxO3a; Homo sapiens, 0.5 h) of 225 nM.
Cc1nc(C(N)=O)nn1-c1ccc(Cc2ccc(-c3ccc(CN4CC(CO)C4)cc3)cc2)cc1 [Example 39-36] was tested, and the AC50 (FoxO3a; Homo sapiens, 0.5 h) was 164 nM.
